Measured values as given in patent US9604987B2, “Synthesis of autophagy inducing compound and the uses thereof” (Hong Kong Baptist University, priority 2012, dated 2017).

Columns and labels:
[1] = test system: mouse primary cortical neurons; experiment: Autophagy in primary mouse cortical neurons (LC3-II blot, GFP-LC3 puncta); type: cell-based, E17 embryonic ICR mice; settings: 24 hours
Experimental: Primary neuron culture. The E17 embryonic pup brains were dissected and cortices were placed in a Petri dish containing ice cold EBSS, with meninges carefully removed. Tissues were digested in 5 ml of digestion solution (EBSS containing 0.5 mM EDTA (E6758, Sigma), 0.5 mg/ml Papain (3120, Worthington Biochem) and 4 mg/ml L-Cysteine (C7880, Sigma)) at 37° C. for 15 minutes. The tissue was sucked out in 1 ml of digestion solution and mixed with 3 ml of digestion inhibition solution (EBSS containing 5 mg/ml BSA (A2153, Sigma), 5 mg/ml Trypsin inhibitor (T9253, Sigma) and 10 μg/ml DNase (DN25, Sigma)). The mixed tissue solution was thoroughly mixed to dissociate the cells and then transferred to a 50 ml tube through a 70 μm filter. The cells were collected by centrifugation and re-suspended in seeding medium (DMEM containing 10% FBS and 10% horse serum). […]
To further confirm the pro-autophagic effect of Cory B on primary neurons, mouse primary cortical neurons isolated from E17 embryonic ICR mice are used in this study. […] Neurons are fixed in 4% paraformaldehyde and analyzed under a confocal microscope. GFP-LC3 puncta number in each GFP positive neuron is counted and at least 20 neurons in each group is counted. […]

JNPL P301 Tau mice = JNPL P301 Tau mice treated intraperitoneally; type: in vivo; settings: 20 mg/kg/d intraperitoneally, three months
Experimental: (§1) N2a Swedish APP cells are incubated with different concentration of Cory and Cory B in the presence or absence of CQ and 3MA. […] Tg2567 APP mice, 3 months old JNPL P301 Tau mice and WT mice intraperitoneally are administrated with 20 mg/kg/d CoryB.

[2] = test system: WT and A53T α-syn in differentiated DA neurons; experiment: α-syn degradation in human dopaminergic neurons differentiated from embryonic stem cells; type: cell-based
Text: Differentiation of stem cells into dopaminergic neurons. The human embryonic stem (ES) cells were differentiated into dopaminergic neurons according to a previously described protocol with minor changes. Initially, ES cells were digested with dispase (17105041, Invitrogen,) and broken into smaller clusters to form the embryonic bodies. The next day, undifferentiated floating ES cell aggregates were transferred to a new flask. The cells were maintained in DMEM/F12 medium (11320082, Invitrogen) with half medium changed every day for 3 days. On the fourth day, ES cell aggregates were collected by centrifuge and re-suspended in NSM (DMEM/F12 containing 1% N2 supplement (17502048, Invitrogen), 1 μg/ml Heparin (H3149, Sigma), 200 μM NEAA (11140050, Invitrogen) and 2 mM L-glutamine (25030081, Invitrogen)) supplemented with 10% FBS. Embryonic stem cells were transferred to a new flask and medium was changed every other day. Three days later, cell aggregates were transferred to 6-well-plates. The next day, the FBS containing media were replaced with NSM containing 20 ng/ml FGF8 (PHG0184, Invitrogen) and 100 ng/ml SHH (PMC2095, Invitrogen), media were changed every other day. Five days later, the colonies in the dish were detached by pipetting gently with a P1000 pipette. […]

[3] = test system: phosphorylated mTOR and P70S6K; experiment: Western blot of mTOR pathway and other autophagy pathways in N2a cells; type: cell-based, mouse
Experimental: FIG. 7: Western blot analysis of expression level of phosphorylated mTOR (p-mTOR) or its substrate P70S6K (p-P70S6K) in N2a cells with treatment of 25 μM Cory B or 0.2 μM rapamycin for 6 hours (FIG. 7A); western blot analysis of Beclin 1 expression in N2a cells with non-target or Beclin 1-specific siRNA treatments followed by Cory B (FIG. 7B)
To elucidate the molecular mechanism of Cory B action, the classic autophagy controlling pathway, the mTOR pathway is first examined.

Tg2567 APP mice = Tg2567 APP mice treated intraperitoneally; type: in vivo; settings: 20 mg/kg/d intraperitoneally, three months
Experimental: as §1

N2a Swedish APP cells = experiment: APP reduction in N2a Swedish APP cells (western blot); type: cell-based, mouse; settings: different concentrations, with or without CQ and 3MA
Experimental: as §1

What does the source list for `CC[C@@H]1CN2CC[C@]3(C(=O)Nc4ccccc43)C2C[C@@H]1C(=COC)C(=O)OC` (some centres unmarked) [Cory B, Corynoxine B]?
LC3-II level ([1]; 0-50 μM): dose-dependent increase of LC3-II; GFP puncta in neurons transfected with GFP-LC3 construct ([1]; 50 μM): induces massive formation of GFP puncta; total tau (JNPL P301 Tau mice): significantly decrease; WT and A53T α-syn levels [2]: dramatically decreases both WT and A53T α-syn levels; phosphorylated mTOR and p-P70S6K levels ([3]; 25 μM Cory B or 0.2 μM rapamycin, 6 hours): neither phosphorylated mTOR nor its substrate P70S6K are affected; AKT, AMPK, MEK/ERK, JNK, ER stress and calcium signaling pathways ([3]; data not shown): none of the above mentioned pathways are altered; Fl-APP/CTF (Tg2567 APP mice): significantly decrease; full length and CTF APP (N2a Swedish APP cells): dose-dependently reduce both full length and CTF APP
